Publication PMC9059125 (Journal of Medicinal Chemistry, 2022)
Like-named read-outs stand apart in the source and are kept apart here. Where a SMILES comes first, the peptide text is derived from it.

Experiments:
[1] = target: T1, human oxytocin receptor (OTR) (Homo sapiens, UniProt P30559); test: NIMH PDSP FLIPR-TETRA Ca2+-mobilization assay; assay type: cell-based; settings: agonist, Ca2+ assay, NIMH PDSP, n ≥ 2; read-out: EC50 ± SEM OTR
T1 construct: NIMH PDSP (data provider)
T1 sequence (P30559 1-389): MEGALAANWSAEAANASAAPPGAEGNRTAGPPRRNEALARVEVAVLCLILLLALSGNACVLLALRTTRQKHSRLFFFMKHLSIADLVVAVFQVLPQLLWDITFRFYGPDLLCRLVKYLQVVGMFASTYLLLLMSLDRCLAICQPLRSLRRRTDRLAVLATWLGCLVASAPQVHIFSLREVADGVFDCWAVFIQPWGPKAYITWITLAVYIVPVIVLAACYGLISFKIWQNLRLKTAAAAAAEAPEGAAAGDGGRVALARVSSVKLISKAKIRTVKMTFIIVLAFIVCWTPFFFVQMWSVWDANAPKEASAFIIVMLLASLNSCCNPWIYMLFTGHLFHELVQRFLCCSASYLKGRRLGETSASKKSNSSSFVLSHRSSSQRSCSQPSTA

[2] = simulated gi fluid, pH 6.8
[3] = simulated gi fluid, pH 1.2

Compound	EC50 [1]	t1/2 SIF ([2]; pig)	t1/2 SIF [2]	t1/2 SGF [3]
[H][C@@]12CCCN1C(=O)[C@]1([H])CCCN1C(=O)[C@H]([C@@H](C)CC)NC(=O)[C@H](CO)NC(=O)[C@H](CCCCN)NC(=O)[C@H]([C@@H](C)O)NC(=O)[C@@H]1CSSC[C@H](NC(=O)[C@H]([C@@H](C)CC)NC2=O)C(=O)N[C@@H](Cc2ccc(O)cc2)C(=O)N[C@@H](Cc2ccccc2)C(=O)N[C@@H](CCC(N)=O)C(=O)N[C@@H](CC(N)=O)C(=O)N1 [SFTI-1(VP^[2-5])] (HELM PEPTIDE1{C.T.K.S.I.P.P.I.C.Y.F.Q.N}$PEPTIDE1,PEPTIDE1,1:R3-9:R3|PEPTIDE1,PEPTIDE1,1:R1-13:R2$$$V2.0)	> 30 µM	12 ± 1 min		
[H][C@@]12CCCN1C(=O)[C@@H]1CSSC[C@H](NC(=O)CNC(=O)[C@H](CC(C)C)NC(=O)[C@]3([H])CCCN3C(=O)[C@@H]3CSSC[C@H](NC(=O)CNC(=O)[C@H](CC(C)C)NC2=O)C(=O)N[C@@H](Cc2ccc(O)cc2)C(=O)N[C@@H]([C@@H](C)CC)C(=O)N[C@@H](CCC(N)=O)C(=O)N[C@@H](CC(N)=O)C(=O)N3)C(=O)N[C@@H](Cc2ccc(O)cc2)C(=O)N[C@@H]([C@@H](C)CC)C(=O)N[C@@H](CCC(N)=O)C(=O)N[C@@H](CC(N)=O)C(=O)N1 [c(OT)2] (HELM PEPTIDE1{C.P.L.G.C.Y.I.Q.N.C.P.L.G.C.Y.I.Q.N}$PEPTIDE1,PEPTIDE1,1:R3-14:R3|PEPTIDE1,PEPTIDE1,5:R3-10:R3|PEPTIDE1,PEPTIDE1,1:R1-18:R2$$$V2.0)			<3 min	
[H][C@@]12CCCN1C(=O)[C@H](CC)NC(=O)[C@H](CC(N)=O)NC(=O)[C@H](CCC(N)=O)NC(=O)[C@H]([C@@H](C)CC)NC(=O)[C@H](Cc1ccc(O)cc1)NC(=O)[C@@H]1CSSC[C@H](NC(=O)CNC(=O)[C@H](CC(C)C)NC2=O)C(=O)N[C@@H]([C@@H](C)O)C(=O)N[C@@H](CCCCN)C(=O)N[C@@H](CO)C(=O)N[C@@H]([C@@H](C)CC)C(=O)N2CCC[C@@]2([H])C(=O)N2CCC[C@@]2([H])C(=O)N[C@@H]([C@@H](C)CC)C(=O)N1 [SFTI-1(OT^[2-9])] (HELM PEPTIDE1{[Abu].P.L.G.C.T.K.S.I.P.P.I.C.Y.I.Q.N}$PEPTIDE1,PEPTIDE1,5:R3-13:R3|PEPTIDE1,PEPTIDE1,1:R1-17:R2$$$V2.0)	> 30 µM	3 ± 1 min		
[H][C@@]12CCCN1C(=O)[C@@H]1CSSC[C@H](NC(=O)CNC(=O)[C@H](CCCNC(=N)N)NC(=O)[C@]3([H])CCCN3C(=O)[C@@H]3CSSC[C@H](NC(=O)CNC(=O)[C@H](CCCNC(=N)N)NC2=O)C(=O)N[C@@H](Cc2ccc(O)cc2)C(=O)N[C@@H](Cc2ccccc2)C(=O)N[C@@H](CCC(N)=O)C(=O)N[C@@H](CC(N)=O)C(=O)N3)C(=O)N[C@@H](Cc2ccc(O)cc2)C(=O)N[C@@H](Cc2ccccc2)C(=O)N[C@@H](CCC(N)=O)C(=O)N[C@@H](CC(N)=O)C(=O)N1 [c(VP)2] (HELM PEPTIDE1{C.P.R.G.C.Y.F.Q.N.C.P.R.G.C.Y.F.Q.N}$PEPTIDE1,PEPTIDE1,1:R3-14:R3|PEPTIDE1,PEPTIDE1,5:R3-10:R3|PEPTIDE1,PEPTIDE1,1:R1-18:R2$$$V2.0)			<3 min	
CC[C@H](C)[C@@H]1NC(=O)[C@H](CCC(=O)O)NC(=O)[C@@H]2CCCN2C(=O)[C@H](Cc2cnc[nH]2)NC(=O)[C@H](CC(=O)O)NC(=O)[C@H](Cc2ccc(O)cc2)NC(=O)[C@H](CC(N)=O)NC(=O)[C@@H]2CSSC[C@H](NC(=O)CN)C(=O)N[C@@H](CSSC[C@@H](C(N)=O)NC1=O)C(=O)N[C@@H](CO)C(=O)N[C@@H](CC(=O)O)C(=O)N1CCC[C@H]1C(=O)N[C@@H](CCCNC(=N)N)C(=O)N2 [Vc1.1, reference compound]		144 ± 12 min		>1440 min
[H][C@@]12CCCN1C(=O)[C@]1([H])CCCN1C(=O)[C@H]([C@@H](C)CC)NC(=O)[C@H](CO)NC(=O)[C@H](CCCCN)NC(=O)[C@H]([C@@H](C)O)NC(=O)[C@@H]1CSSC[C@H](NC(=O)[C@H]([C@@H](C)CC)NC2=O)C(=O)N[C@@H](Cc2ccc(O)cc2)C(=O)N[C@@H]([C@@H](C)CC)C(=O)N[C@@H](CCC(N)=O)C(=O)N[C@@H](CC(N)=O)C(=O)N1 [SFTI-1(OT^[2-5])] (HELM PEPTIDE1{C.T.K.S.I.P.P.I.C.Y.I.Q.N}$PEPTIDE1,PEPTIDE1,1:R3-9:R3|PEPTIDE1,PEPTIDE1,1:R1-13:R2$$$V2.0)	> 30 µM	31 ± 3 min		
[H][C@@]12CCCN1C(=O)[C@@H]1CSSC[C@H](NC(=O)CNC(=O)[C@H](CC(C)C)NC(=O)[C@]3([H])CCCN3C(=O)[C@@H]3CSSC[C@H](NC(=O)CNC(=O)[C@H](CCCNC(=N)N)NC2=O)C(=O)N[C@@H](Cc2ccc(O)cc2)C(=O)N[C@@H]([C@@H](C)CC)C(=O)N[C@@H](CCC(N)=O)C(=O)N[C@@H](CC(N)=O)C(=O)N3)C(=O)N[C@@H](Cc2ccc(O)cc2)C(=O)N[C@@H](Cc2ccccc2)C(=O)N[C@@H](CCC(N)=O)C(=O)N[C@@H](CC(N)=O)C(=O)N1 [c(OT-VP)] (HELM PEPTIDE1{C.P.L.G.C.Y.F.Q.N.C.P.R.G.C.Y.I.Q.N}$PEPTIDE1,PEPTIDE1,1:R3-14:R3|PEPTIDE1,PEPTIDE1,5:R3-10:R3|PEPTIDE1,PEPTIDE1,1:R1-18:R2$$$V2.0)			<3 min	
[H][C@@]12CCCN1C(=O)[C@H](CC)NC(=O)[C@H](CC(N)=O)NC(=O)[C@H](CCC(N)=O)NC(=O)[C@H](Cc1ccccc1)NC(=O)[C@H](Cc1ccc(O)cc1)NC(=O)[C@@H]1CSSC[C@H](NC(=O)CNC(=O)[C@H](CCCNC(=N)N)NC2=O)C(=O)N[C@@H]([C@@H](C)O)C(=O)N[C@@H](CCCCN)C(=O)N[C@@H](CO)C(=O)N[C@@H]([C@@H](C)CC)C(=O)N2CCC[C@@]2([H])C(=O)N2CCC[C@@]2([H])C(=O)N[C@@H]([C@@H](C)CC)C(=O)N1 [SFTI-1(VP^[2-9])] (HELM PEPTIDE1{[Abu].P.R.G.C.T.K.S.I.P.P.I.C.Y.F.Q.N}$PEPTIDE1,PEPTIDE1,5:R3-13:R3|PEPTIDE1,PEPTIDE1,1:R1-17:R2$$$V2.0)	> 30 µM		<3 min	
